Tested on: 695427-040-R-J1-PDC complex spheroid viability
Assay: Anticancer human tumor 695427-040-R-J1-PDC patient-derived colon adenocarcinoma cell line growth inhibition [POLQ]
Conditions: for IC50: curve of first compound; for viability, T/C: stronger effect = lower value; active = viability on the fitted dose curve at most 10% of control; inactive = the rest
How it was run: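 Three-cell-type spheroids modelling solid tumor plus stroma served as the readout system; POL inhibitors were tested individually and in combination, concentration ranges set by clinical Cmax where known.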

[1] = second compound 0.0316 µM, first compound 0.00316 µM
[2] = second compound 0.0316 µM, first compound 0.01 µM
[3] = second compound 0.0316 µM, first compound 0.0316 µM
[4] = second compound 0.0316 µM, first compound 0.1 µM
[5] = second compound 0.1 µM, first compound 0.00316 µM
[6] = second compound 0.1 µM, first compound 0.01 µM
[7] = second compound 0.1 µM, first compound 0.0316 µM
[8] = second compound 0.1 µM, first compound 0.1 µM
[9] = second compound 0.316 µM, first compound 0.00316 µM
[10] = second compound 0.316 µM, first compound 0.01 µM
[11] = second compound 0.316 µM, first compound 0.0316 µM
[12] = second compound 0.316 µM, first compound 0.1 µM
[13] = second compound 1 µM, first compound 0.00316 µM
[14] = second compound 1 µM, first compound 0.01 µM
[15] = second compound 1 µM, first compound 0.0316 µM
[16] = second compound 1 µM, first compound 0.1 µM
[17] = second compound 3.16 µM, first compound 0.00316 µM
[18] = second compound 3.16 µM, first compound 0.01 µM
[19] = second compound 3.16 µM, first compound 0.0316 µM
[20] = second compound 3.16 µM, first compound 0.1 µM
[21] = second compound 10 µM, first compound 0.00316 µM
[22] = second compound 10 µM, first compound 0.01 µM
[23] = second compound 10 µM, first compound 0.0316 µM
[24] = second compound 10 µM, first compound 0.1 µM
[25] = second compound 0.0316 µM, first compound 0.316 µM
[26] = second compound 0.0316 µM, first compound 1 µM
[27] = second compound 0.1 µM, first compound 0.316 µM
[28] = second compound 0.1 µM, first compound 1 µM
[29] = second compound 0.316 µM, first compound 0.316 µM
[30] = second compound 0.316 µM, first compound 1 µM
[31] = second compound 1 µM, first compound 0.316 µM
[32] = second compound 1 µM, first compound 1 µM
[33] = second compound 3.16 µM, first compound 0.316 µM
[34] = second compound 3.16 µM, first compound 1 µM
[35] = second compound 10 µM, first compound 0.316 µM
[36] = second compound 10 µM, first compound 1 µM
[37] = second compound 0.0316 µM, first compound 3.16 µM
[38] = second compound 0.0316 µM, first compound 10 µM
[39] = second compound 0.1 µM, first compound 3.16 µM
[40] = second compound 0.1 µM, first compound 10 µM
[41] = second compound 0.316 µM, first compound 3.16 µM
[42] = second compound 0.316 µM, first compound 10 µM
[43] = second compound 1 µM, first compound 3.16 µM
[44] = second compound 1 µM, first compound 10 µM
[45] = second compound 3.16 µM, first compound 3.16 µM
[46] = second compound 3.16 µM, first compound 10 µM
[47] = second compound 10 µM, first compound 3.16 µM
[48] = second compound 10 µM, first compound 10 µM
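Also: spheroids exposed to compounds for seven days.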
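For viability, T/C in this document: 100% = DMSO vehicle control viability.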

CC[C@@]1(O)C(=O)OCc2c1cc1n(c2=O)Cc2cc3c(CN(C)C)c(O)ccc3nc2-1 + Cc1cccc(N(C)C(=O)C2C(O)CCN2c2nc(C)cc(C(F)(F)F)c2C#N)c1
inactive: viability, T/C (second compound 0.0316 µM, first compound 0.000316 µM) 110% | viability, T/C (second compound 0.0316 µM, first compound 0.001 µM) 98.7% | viability, T/C [1] 104% | viability, T/C [2] 94.5% | viability, T/C [3] 99.4% | viability, T/C [4] 88.5% | viability, T/C (second compound 0.1 µM, first compound 0.000316 µM) 109% | viability, T/C (second compound 0.1 µM, first compound 0.001 µM) 98.5% | viability, T/C [5] 94.7% | viability, T/C [6] 104% | viability, T/C [7] 97.5% | viability, T/C [8] 88.7% | viability, T/C (second compound 0.316 µM, first compound 0.000316 µM) 99.1% | viability, T/C (second compound 0.316 µM, first compound 0.001 µM) 95.9% | viability, T/C [9] 98.2% | viability, T/C [10] 91.5% | viability, T/C [11] 101% | viability, T/C [12] 87.3% | viability, T/C (second compound 1 µM, first compound 0.000316 µM) 98.2% | viability, T/C (second compound 1 µM, first compound 0.001 µM) 93.4% | viability, T/C [13] 97.5% | viability, T/C [14] 97.1% | viability, T/C [15] 93.7% | viability, T/C [16] 86.9% | viability, T/C (second compound 3.16 µM, first compound 0.000316 µM) 92.4% | viability, T/C (second compound 3.16 µM, first compound 0.001 µM) 98.5% | viability, T/C [17] 91.7% | viability, T/C [18] 98.4% | viability, T/C [19] 101% | viability, T/C [20] 81.7% | viability, T/C (second compound 10 µM, first compound 0.000316 µM) 85.6% | viability, T/C (second compound 10 µM, first compound 0.001 µM) 89.4% | viability, T/C [21] 104% | viability, T/C [22] 90% | viability, T/C [23] 87.5% | viability, T/C [24] 77.7%
> 100 nM: IC50 (second compound 0.0316 µM) | IC50 (second compound 0.1 µM) | IC50 (second compound 0.316 µM) | IC50 (second compound 1 µM) | IC50 (second compound 3.16 µM) | IC50 (second compound 10 µM)

CCc1c2c(nc3ccc(O)cc13)-c1cc3c(c(=O)n1C2)COC(=O)[C@]3(O)CC + Cc1cccc(N(C)C(=O)C2C(O)CCN2c2nc(C)cc(C(F)(F)F)c2C#N)c1
> 1000 nM: IC50 (second compound 0.0316 µM) | IC50 (second compound 0.1 µM) | IC50 (second compound 0.316 µM) | IC50 (second compound 1 µM)
912 nM: IC50 (second compound 3.16 µM)
inactive: viability, T/C [1] 101% | viability, T/C [2] 90.1% | viability, T/C [3] 83% | viability, T/C [4] 81.7% | viability, T/C [25] 66.1% | viability, T/C [26] 51.4% | viability, T/C [5] 99.6% | viability, T/C [6] 98.9% | viability, T/C [7] 80.5% | viability, T/C [8] 76.3% | viability, T/C [27] 69.3% | viability, T/C [28] 52.8% | viability, T/C [9] 93.2% | viability, T/C [10] 92.8% | viability, T/C [11] 90.7% | viability, T/C [12] 75.8% | viability, T/C [29] 67.4% | viability, T/C [30] 49.7% | viability, T/C [13] 96.2% | viability, T/C [14] 94.5% | viability, T/C [15] 85.2% | viability, T/C [16] 77.3% | viability, T/C [31] 67.9% | viability, T/C [32] 51.2% | viability, T/C [17] 89.4% | viability, T/C [18] 84.9% | viability, T/C [19] 82.2% | viability, T/C [20] 82.8% | viability, T/C [33] 66.3% | viability, T/C [34] 48.6% | viability, T/C [21] 84.2% | viability, T/C [22] 80.7% | viability, T/C [23] 78.9% | viability, T/C [24] 70.5% | viability, T/C [35] 58.5% | viability, T/C [36] 41.7%
572 nM: IC50 (second compound 10 µM)

O=C(c1cc(Cc2n[nH]c(=O)c3ccccc23)ccc1F)N1CCN(C(=O)C2CC2)CC1 + Cc1cccc(N(C)C(=O)C2C(O)CCN2c2nc(C)cc(C(F)(F)F)c2C#N)c1
> 10000 nM: IC50 (second compound 0.0316 µM) | IC50 (second compound 0.1 µM) | IC50 (second compound 0.316 µM) | IC50 (second compound 1 µM) | IC50 (second compound 3.16 µM) | IC50 (second compound 10 µM)
inactive: viability, T/C [3] 107% | viability, T/C [4] 98.3% | viability, T/C [25] 101% | viability, T/C [26] 103% | viability, T/C [37] 104% | viability, T/C [38] 93.9% | viability, T/C [7] 111% | viability, T/C [8] 101% | viability, T/C [27] 97.9% | viability, T/C [28] 100% | viability, T/C [39] 113% | viability, T/C [40] 95.3% | viability, T/C [11] 109% | viability, T/C [12] 101% | viability, T/C [29] 99% | viability, T/C [30] 93.1% | viability, T/C [41] 98.4% | viability, T/C [42] 96.9% | viability, T/C [15] 98.5% | viability, T/C [16] 94.5% | viability, T/C [31] 97.6% | viability, T/C [32] 92.8% | viability, T/C [43] 101% | viability, T/C [44] 91.2% | viability, T/C [19] 103% | viability, T/C [20] 94% | viability, T/C [33] 102% | viability, T/C [34] 91.4% | viability, T/C [45] 103% | viability, T/C [46] 103% | viability, T/C [23] 89.4% | viability, T/C [24] 88% | viability, T/C [35] 97.9% | viability, T/C [36] 90.4% | viability, T/C [47] 92.3% | viability, T/C [48] 78.9%

O=c1[nH]cc(F)c(=O)[nH]1 + Cc1cccc(N(C)C(=O)C2C(O)CCN2c2nc(C)cc(C(F)(F)F)c2C#N)c1
inactive: viability, T/C [3] 105% | viability, T/C [4] 94.5% | viability, T/C [25] 95.2% | viability, T/C [26] 98.1% | viability, T/C [37] 106% | viability, T/C [38] 98.2% | viability, T/C [7] 106% | viability, T/C [8] 102% | viability, T/C [27] 102% | viability, T/C [28] 101% | viability, T/C [39] 109% | viability, T/C [40] 97% | viability, T/C [11] 112% | viability, T/C [12] 102% | viability, T/C [29] 99.1% | viability, T/C [30] 104% | viability, T/C [41] 101% | viability, T/C [42] 99.5% | viability, T/C [15] 105% | viability, T/C [16] 100% | viability, T/C [31] 108% | viability, T/C [32] 101% | viability, T/C [43] 93% | viability, T/C [44] 88.4% | viability, T/C [19] 96% | viability, T/C [20] 103% | viability, T/C [33] 101% | viability, T/C [34] 97.4% | viability, T/C [45] 101% | viability, T/C [46] 103% | viability, T/C [23] 90.6% | viability, T/C [24] 94.8% | viability, T/C [35] 87.5% | viability, T/C [36] 96.3% | viability, T/C [47] 92.8% | viability, T/C [48] 84.8%
> 10000 nM: IC50 (second compound 0.0316 µM) | IC50 (second compound 0.1 µM) | IC50 (second compound 0.316 µM) | IC50 (second compound 1 µM) | IC50 (second compound 3.16 µM) | IC50 (second compound 10 µM)
